Measured values: patent US10570131B2, “Heterocyclic compounds and their use in preventing or treating bacterial infections” (MUTABILIS, priority 2015, dated 2020)
Counter-ions that a name gives are not always drawn.

Key:
CTX-M-15 = molecular target: T1, CTX-M-15 (Escherichia coli, UniProt Q9EXV5); assay: β-lactamase inhibitory activity, IC50 (nitrocefin hydrolysis); type: biochemical
T1 construct: made in house; host or cells: E. coli expression vector
Description: (§1) Method 1: β-lactamase Inhibitory Activity, Determination of IC50 (Table 1)
(§2) Enzyme activity was monitored by spectrophotometric measurement of nitrocefin (NCF—TOKU-E, N005) hydrolysis at 485 nm, at room temperature and in assay buffer A: 100 mM Phosphate pH7, 2% glycerol and 0.1 mg/mL Bovine serum albumin (Sigma, B4287). Enzymes were cloned in E. coli expression vector, expressed and purified in house using classical procedures. To a transparent polystyrene plate (Corning, 3628) were added in each well 5 μL DMSO or inhibitor dilutions in DMSO and 80 μL enzyme in buffer A. Plates were immediately read at 485 nm in a microplate spectrophotometer (BioTek, PowerWave HT) to enable background subtraction. After 30 min of pre-incubation at room temperature, 15 μL of NCF (200 μM final) were finally added in each well. Final enzyme concentrations were 0.1 nM (TEM-1), 0.075 nM (SHV-1), 0.4 nM (CTX-M-15), 1 nM (KPC-2), 0.2 nM (P99 AmpC), 0.2 nM (CMY-37), 0.4 nM (AmpC P. aeruginosa), 0.2 nM (OXA-1), 1.2 nM (OXA-11), 0.4 nM (OXA-15) and 0.3 nM (OXA-48). After 20 min incubation at room temperature, plates were once again read at 485 nm. Enzyme activity was obtained by subtracting the final signal by the background, and was converted to enzyme inhibition using non inhibited wells. IC50 curves were fitted to a classical Langmuir equilibrium model with Hill slope using XLFIT (IDBS).

KPC-2 = molecular target: T2, KPC-2 (Klebsiella pneumoniae, UniProt Q9F663); assay: as above; type: biochemical
T2 construct: made in house; host or cells: E. coli expression vector
T2 sequence (Q9F663 25-293 limits assumed): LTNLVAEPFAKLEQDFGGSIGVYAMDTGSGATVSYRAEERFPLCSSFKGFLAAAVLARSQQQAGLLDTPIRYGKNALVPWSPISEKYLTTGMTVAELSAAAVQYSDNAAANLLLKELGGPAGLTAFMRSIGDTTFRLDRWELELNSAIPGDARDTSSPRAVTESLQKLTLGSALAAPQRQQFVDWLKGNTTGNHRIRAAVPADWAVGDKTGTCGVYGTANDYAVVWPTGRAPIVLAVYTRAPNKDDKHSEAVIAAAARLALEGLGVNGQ
Description: as §1, §2

OXA-1 = molecular target: T3, OXA-1 (Escherichia coli, UniProt P13661); assay: as above; type: biochemical
T3 construct: made in house; host or cells: E. coli expression vector
T3 sequence (P13661 26-276): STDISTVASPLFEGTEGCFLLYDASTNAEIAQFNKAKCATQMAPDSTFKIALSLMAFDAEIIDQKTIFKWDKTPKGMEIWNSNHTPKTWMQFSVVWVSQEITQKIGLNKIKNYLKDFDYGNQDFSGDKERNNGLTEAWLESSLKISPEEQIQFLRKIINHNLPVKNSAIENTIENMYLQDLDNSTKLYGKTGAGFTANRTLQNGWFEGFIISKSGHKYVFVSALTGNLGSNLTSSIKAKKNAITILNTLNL
Description: as §1, §2

OXA-11 = molecular target: T4, OXA-11 (Pseudomonas aeruginosa, UniProt Q06778); assay: as above; type: biochemical
T4 construct: made in house; host or cells: E. coli expression vector
T4 sequence (Q06778 21-266): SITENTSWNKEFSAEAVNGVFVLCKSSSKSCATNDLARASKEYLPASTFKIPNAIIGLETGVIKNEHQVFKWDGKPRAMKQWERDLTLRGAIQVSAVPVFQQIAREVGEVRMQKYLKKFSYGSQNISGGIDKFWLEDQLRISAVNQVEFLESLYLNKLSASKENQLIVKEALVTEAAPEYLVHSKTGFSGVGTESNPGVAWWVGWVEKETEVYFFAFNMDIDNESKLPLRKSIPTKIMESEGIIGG
Description: as §1, §2

OXA-48 = molecular target: T5, OXA-48 (Klebsiella pneumoniae, UniProt Q6XEC0); assay: as above; type: biochemical
T5 construct: made in house; host or cells: E. coli expression vector
T5 sequence (Q6XEC0 23-265 limits assumed): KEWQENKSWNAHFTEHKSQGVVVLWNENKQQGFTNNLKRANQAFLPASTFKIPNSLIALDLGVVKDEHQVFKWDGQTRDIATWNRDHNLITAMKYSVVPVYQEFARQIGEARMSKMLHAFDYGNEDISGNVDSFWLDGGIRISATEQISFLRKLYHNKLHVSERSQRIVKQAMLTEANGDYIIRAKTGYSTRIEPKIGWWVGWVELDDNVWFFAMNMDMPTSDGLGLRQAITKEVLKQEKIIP
Description: as §1, §2

SHV-1 = molecular target: T6, SHV-1 (Klebsiella pneumoniae, UniProt P0AD64); assay: as above; type: biochemical
T6 construct: made in house; host or cells: E. coli expression vector
T6 sequence (P0AD64 22-286): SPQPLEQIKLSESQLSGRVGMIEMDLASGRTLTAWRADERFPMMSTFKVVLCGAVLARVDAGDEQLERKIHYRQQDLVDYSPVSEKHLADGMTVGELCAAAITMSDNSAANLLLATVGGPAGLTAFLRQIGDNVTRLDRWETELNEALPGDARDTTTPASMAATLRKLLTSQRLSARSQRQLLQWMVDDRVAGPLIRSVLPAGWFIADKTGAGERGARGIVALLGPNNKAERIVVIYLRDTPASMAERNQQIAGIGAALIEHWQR
Description: as §1, §2

TEM-1 = molecular target: T7, TEM-1 (Escherichia coli, UniProt P62593); assay: as above; type: biochemical; conditions: class (A); 30 min pre-incubation; NCF 200 μM
T7 construct: made in house; host or cells: E. coli expression vector
T7 sequence (P62593 24-286 limits assumed): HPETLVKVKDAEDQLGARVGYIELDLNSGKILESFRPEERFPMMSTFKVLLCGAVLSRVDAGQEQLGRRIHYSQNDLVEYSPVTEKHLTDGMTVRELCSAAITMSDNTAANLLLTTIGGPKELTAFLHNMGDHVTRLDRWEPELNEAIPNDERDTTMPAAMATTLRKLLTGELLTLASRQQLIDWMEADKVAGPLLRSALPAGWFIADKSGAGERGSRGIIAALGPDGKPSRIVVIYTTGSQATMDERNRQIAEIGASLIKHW
Description: as §1, §2

AmpC (PAE) = molecular target: T8, AmpC (PAE) (Pseudomonas aeruginosa, UniProt P24735); assay: biochemical; set-up: species or system P. aeruginosa
T8 construct: made in house; host or cells: E. coli expression vector
T8 sequence (P24735 27-397): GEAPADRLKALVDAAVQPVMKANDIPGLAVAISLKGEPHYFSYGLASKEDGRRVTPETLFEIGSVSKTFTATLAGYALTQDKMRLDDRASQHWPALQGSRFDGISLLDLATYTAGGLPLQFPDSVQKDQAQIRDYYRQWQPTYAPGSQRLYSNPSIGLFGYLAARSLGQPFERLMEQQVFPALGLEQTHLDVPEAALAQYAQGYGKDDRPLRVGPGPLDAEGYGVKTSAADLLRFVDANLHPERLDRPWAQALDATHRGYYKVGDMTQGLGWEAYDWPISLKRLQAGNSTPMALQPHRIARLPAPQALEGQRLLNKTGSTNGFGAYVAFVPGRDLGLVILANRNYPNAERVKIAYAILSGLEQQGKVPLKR
Description: as §1, §2

E. cloacae P99 = assay: MIC of compounds alone, broth microdilution; type: cell-based; conditions: Enterobacter cloacae; strain P99 (AmpC); read-out: MIC compounds of the invention alone
Description: (§3) Compounds of the present invention were assessed against genotyped bacterial strains alone or in combination with the β-lactam ceftazidime (CAZ). […] Briefly, compounds alone according to the invention were prepared in DMSO and spotted (2 μL each) on sterile polystyrene plates (Corning, 3788). […] Log phase bacterial suspensions were adjusted to a final density of 5×10^5 cfu/mL in cation-adjusted Mueller-Hinton broth (Becton-Dickinson) and added to each well (98 μL). Microplates were incubated for 16-20 h at 35° C. in ambient air. The MIC of the compounds was defined as the lowest concentration of said compounds that prevented bacterial growth as read by visual inspection.

E. coli 131119 [1] = assay: microbe, parasite or virus in culture; type: cell-based; conditions: Escherichia coli, 131119, read-out: MIC compounds of the invention alone
Description: as §3

K. pneumoniae 6299 [2] = assay: microbe, parasite or virus in culture; type: cell-based; conditions: Klebsiella pneumoniae, 6299, read-out: MIC compounds of the invention alone
Description: as §3

K. pneumoniae BAA-1898 [3] = assay: microbe, parasite or virus in culture; type: cell-based; conditions: Klebsiella pneumoniae, BAA1898, read-out: MIC compounds of the invention alone
Description: as §3

P. aeruginosa CIP105250 [4] = assay: microbe, parasite or virus in culture; type: cell-based; conditions: Pseudomonas aeruginosa, CIP105250, read-out: MIC compounds of the invention alone
Description: as §3

K. pneumoniae UFR68 = type: cell-based; conditions: MIC of ceftazidime with compound fixed at 4 μg/mL; strain UFR68 (TEM-1, SHV-11, CTX-M-15, KPC-3)
E. coli 131119 [5] = assay: MIC of ceftazidime alone and in combination with compounds (synergy), broth microdilution; type: cell-based; conditions: MIC of ceftazidime with compound fixed at 4 μg/mL; strain 131119 (TEM-1, OXA-48)
Description: as §3

E. coli RGN238 = assay: as above; type: cell-based; conditions: MIC of ceftazidime with compound fixed at 4 μg/mL; strain RGN238 (OXA-1)
Description: as §3

E. coli UFR74 = assay: as above; type: cell-based; conditions: MIC of ceftazidime with compound fixed at 4 μg/mL; strain UFR74 (SHV-1, DHA-1)
Description: as §3

K. pneumoniae 6299 [6] = assay: as above; type: cell-based; conditions: MIC of ceftazidime with compound fixed at 4 μg/mL; strain 6299 (TEM-1, SHV-11, OXA-163)
Description: as §3

K. pneumoniae BAA-1898 [7] = assay: as above; type: cell-based; conditions: MIC of ceftazidime with compound fixed at 4 μg/mL; strain BAA-1898 (TEM-1, SHV-11, SHV-12, KPC-2)
Description: as §3

K. pneumoniae UFR77 = assay: as above; type: cell-based; conditions: MIC of ceftazidime with compound fixed at 4 μg/mL; strain UFR77 (CMY-2)
Description: as §3

P. aeruginosa CIP105250 [8] = assay: as above; type: cell-based; conditions: MIC of ceftazidime with compound fixed at 4 μg/mL; strain CIP105250 (OXA-15)
Description: as §3

P. aeruginosa CIP107051 = assay: as above; type: cell-based; conditions: MIC of ceftazidime with compound fixed at 4 μg/mL; strain CIP107051 (TEM-24)
Description: as §3

E. coli UFR18 = assay: as above; type: cell-based; conditions: MIC of ceftazidime with compound fixed at 4 μg/mL; strain UFR18 (CTX-M-15, OXA-204)

T1 sequence (Q9EXV5 entry or part of it): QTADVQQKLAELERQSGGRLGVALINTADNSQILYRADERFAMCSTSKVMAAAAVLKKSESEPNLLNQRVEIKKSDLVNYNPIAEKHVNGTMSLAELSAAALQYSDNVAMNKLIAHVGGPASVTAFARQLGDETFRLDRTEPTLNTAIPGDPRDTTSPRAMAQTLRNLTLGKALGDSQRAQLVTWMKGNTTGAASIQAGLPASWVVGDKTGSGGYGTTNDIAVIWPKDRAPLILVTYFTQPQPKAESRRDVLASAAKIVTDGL

| SMILES | IC50 (CTX-M-15) [nM] | IC50 (KPC-2) [nM] | IC50 (OXA-1) [nM] | IC50 (OXA-11) [nM] | IC50 (OXA-48) [nM] | IC50 (SHV-1) [nM] | IC50 (TEM-1) [nM] | IC50 (AmpC (PAE)) [nM] | MIC (E. cloacae P99) [µg/mL] | MIC (E. coli 131119 [1]) [µg/mL] | MIC (K. pneumoniae 6299 [2]) [µg/mL] | MIC (K. pneumoniae BAA-1898 [3]) [µg/mL] | MIC (P. aeruginosa CIP105250 [4]) [µg/mL] | MIC, combination of CAZ and compounds of the invention at 4 μg/mL (K. pneumoniae UFR68) [µg/mL] | MIC, combination of CAZ and compounds of the invention at 4 μg/mL (E. coli 131119 [5]) [µg/mL] | MIC, combination of CAZ and compounds of the invention at 4 μg/mL (E. coli RGN238) [µg/mL] | MIC, combination of CAZ and compounds of the invention at 4 μg/mL (E. coli UFR74) [µg/mL] | MIC, combination of CAZ and compounds of the invention at 4 μg/mL (K. pneumoniae 6299 [6]) [µg/mL] | MIC, combination of CAZ and compounds of the invention at 4 μg/mL (K. pneumoniae BAA-1898 [7]) [µg/mL] | MIC, combination of CAZ and compounds of the invention at 4 μg/mL (K. pneumoniae UFR77) [µg/mL] | other results |
| --- | --- | --- | --- | --- | --- | --- | --- | --- | --- | --- | --- | --- | --- | --- | --- | --- | --- | --- | --- | --- | --- |
| CNC(=O)CON=C1C[C@@H](C(N)=O)N2C[C@@H]1N(OS(=O)(=O)[O-])C2=O.[Na+] (mixture of isomers) [Example 2, sodium [(2S,5S)-2-carbamoyl-4-[2-(methylamino)-2-oxo-ethoxy]imino-7-oxo-1,6-diazabicyclo[3.2.1]octan-6-yl] sulfate] | 0.76 | 3.9 | 6.1 | 6.8 | 3.5 | 0.74 | 1.7 | 110 | > 32 | 8 | > 32 | > 32 | > 32 | 64 | ≤0.25 | ≤0.25 | 0.5 | 2 | 64 | 32 | MIC, combination of CAZ and compounds of the invention at 4 μg/mL (P. aeruginosa CIP105250 [8]): 64 µg/mL; MIC, combination of CAZ and compounds of the invention at 4 μg/mL (P. aeruginosa CIP107051): 16 µg/mL; MIC, combination of CAZ and compounds of the invention at 4 μg/mL (E. coli UFR18): 1 µg/mL |
| NC[C@@H]1CC(=NOCC(N)=O)[C@@H]2CN1C(=O)N2OS(=O)(=O)O (mixture of isomers) [Example 5, sodium and 2,2,2-trifluroacetate [(2S,5S)-4-(2-amino-2-oxo-ethoxy)imino-2-(azaniumylmethyl)-7-oxo-1,6-diazabicyclo[3.2.1]octan-6-yl] sulfate] | 130 | 1800 | 370 | 430 | 180 | 64 | 110 | 12000 | 0.063 | > 32 | > 32 | > 32 | 32 | 1 | <0.25 | ≤0.25 | 1 | 0.25 | 0.5 | 2 | MIC, combination of CAZ and compounds of the invention at 4 μg/mL (P. aeruginosa CIP105250 [8]): ≤0.25 µg/mL; MIC, combination of CAZ and compounds of the invention at 4 μg/mL (P. aeruginosa CIP107051): <0.25 µg/mL; MIC, combination of CAZ and compounds of the invention at 4 μg/mL (E. coli UFR18): <0.25 µg/mL |
| NC[C@@H]1CC(=O)[C@@H]2CN1C(=O)N2OS(=O)(=O)O [Example 6, 2,2,2-trifluroacetate and sodium [(2S,5S)-2-(azaniumylmethyl)-4,7-dioxo-1,6-diazabicyclo[3.2.1]octan-6-yl] sulfate] | 510 | 5100 | 1200 | 1600 | 840 | 340 | 280 | 38000 | 1 | 2 | > 32 | > 32 | 16 | 1 | ≤0.25 | ≤0.25 | 0.5 | 2 | 1 | 2 | MIC, combination of CAZ and compounds of the invention at 4 μg/mL (P. aeruginosa CIP105250 [8]): 2 µg/mL; MIC, combination of CAZ and compounds of the invention at 4 μg/mL (P. aeruginosa CIP107051): 0.125 µg/mL; MIC, combination of CAZ and compounds of the invention at 4 μg/mL (E. coli UFR18): ≤0.25 µg/mL |
